This assay deals with mouse fetal liver culture-derived (mFLC) MKs. Nature of the assay: shear-induced proPLT production and PLT release by MKs in the microfluidic device after drug incubation. Format: cell-based. The following applies: for PLT release: under both static and physiological shear conditions; for shear-induced proPLT production: physiological shear. The method, then:
Devices were coated with a 0.22 μm filtered 10% BSA solution (Millipore, Billerica, Mass.) for 30 minutes to prevent direct cell contact with glass. Referring to FIG. 1, primary MKs and media were infused in the first inlet 118 and second inlet 122, respectively, at a rate of 12.5 μL/hour using a two-syringe microfluidic pump (Harvard Apparatus, Holliston, Mass.). When the first outlet 120 was closed, both input solutions were redirected toward the second outlet 124 causing primary MKs to trap.
For shear cultures, MKs were loaded onto ‘naked’ microfluidic devices (only BSA-coated), and the infusion rate was doubled incrementally from 12.5 μL/hr to 200 μL/hr over a 2 hour period. For static cultures, isolated MKs were pipetted into chambers formed by mounting a glass coverslide coated with 3% BSA onto a […] with a 1 cm hole and cultured for 24 hours. Both static and shear cultures were maintained at 37 degrees C. and 5 percent CO2 and examined on a Zeiss Axiovert 200 (Carl Zeiss, Thornwood, N.Y.) equipped with 10× (numerical aperature, 0.30) Plan-Neofluar air objective. Differential interference contrast (DIC) images were obtained using CCD camera (Hamamatsu Photonics, Boston, Mass.) at either 2 second (shear cultures) or 20 minute (static cultures) intervals. Images were analyzed using the Metamorph version 7.7.2.0 image analysis software (Molecular Devices, Sunnyvale, Calif., USA) and ImageJ software version 1.47p. ProPLT extension rates were determined manually for over 200 MKs from at least three independent samples. For PLT spreading experiments, effluent was collected from microfluidic devices after 2 hours and pipetted into uncoated static culture chambers, described above. PLTs were permitted to contact glass by gravity sedimentation and spreading was captured at 5 second intervals over a 5 minute period.
In vivo BM MKs extend proPLTs in the direction of blood flow and release PLTs, proPLTs, large cytoplasmic fragments (prePLTs), and even whole MKs into sinusoidal blood vessels which may be trapping in the pulmonary microvascular bed, or otherwise maturing in the circulation. To determine the effect of physiological shear on PLT production, mouse fetal liver culture-derived (mFLC) MKs were isolated on culture day 4 and characterized by size and ploidy before being infused into the microfluidic device (shown in FIG. 3A).
While shear rates were kept constant, proPLT extension rates varied at different positions along the shaft, predictive of a regulated cytoskeletal driven mechanism of proPLT elongation (shown in FIG. 4C). […]

With `CCCCCC[C@@H]([C@@H](C)O)n1cnc2c(N)ncnc21` (racemic) [EHNA], the PLT release result (1 mM EHNA) was “inhibited”. The “shear-induced proPLT production” value (MKs incubated with 1 mM EHNA prior to infusion in microfluidic device) is recorded as “inhibit”.

In the case of `C/C1=C\[C@H](C)C[C@H](C)OC(=O)C[C@H](c2ccc(O)cc2)NC(=O)[C@@H](Cc2c(Br)[nH]c3ccccc23)N(C)C(=O)[C@H](C)NC(=O)[C@@H](C)C1` [Jas, Jasplankinolide], the PLT release entry (5 μM Jas) was “inhibited”. Besides, the “shear-induced proPLT production” value (MKs incubated with 5 μM Jas prior to infusion in microfluidic device) is “inhibit”.
